# Experimental data published in US6451761B1, “N′N′-dichlorinated omega-amino acids and uses thereof” (Queen's University at Kingston, priority 1999, dated 2002).
# Read-outs that look alike come from different tables or passages of the source.
# Columns and labels:
# [1] = Stability on storage and in water or solvents (TLC and NMR monitoring); type: physicochemical
# Experimental: Taurine (1.5 g) was suspended in a mixture of methanol (50 mL) and 4 M aqueous hydrochloric acid (25 mL). To this was added in small aliquots 4-6% aqueous sodium hypochlorite (40 mL) with stirring. The taurine dissolved with evolution of gentle heat. After 2 h the solution was concentrated (below 30° C.) to a small volume. Ethanol (200 mL) was added and the precipitated sodium chloride was removed by filtration. This procedure was repeated until no more precipitate formed. After concentration to a small volume of oily residue, 50/50 methanol-ethyl acetate (100 mL) was added, and the mixture was again filtered to remove residual sodium chloride. Upon reconcentration, the residue was treated with 0.04 M aqueous hydrochloric acid in acetone (25 mL). Slow concentration yielded white, iridescent plates, (0.7 g). […] Detection was by spraying with 2% KI-starch (yellow-brown) followed by ethanolic ninhydrin (faintly pink); M.P. 148° C. UV (λmax) 310 nm (ε1.851×10^2, 95% ethanol); ^1Hmr (D2O) 3.05-3.2(2H, m) and 3.95-4.05(2H, m); MS (es−): 191.9(18.76%), 193.8 (13.41%), 195.8(2.83%).
# (§1) The chlorinaton and desalting methodology was essentially similar to that for taurine. […] Final isolation was from 50/50 (^v/v) diethylether-methanol plus dichloromethane, followed by slow evaporation at approximately 0-4° C. M.P. 197° C.; UV: λmax 308 (ε1.486×10^2, 95% ethanol); ^1Hmr (D2O) δ: 2.05-2.15 (2H, m, αCH2), 2.95-3.05 (2H, m, βCH2), 3.9-4.0 (2H, m, γCH2); MS (es−): 205.9(1.4%), 207.9(0.88%), 210.0(0.31%).
# N,N-dichloro-GABA: UV: λmax 308 nm (ε2.974×10^2, 95% ethanol); ^1Hmr (CDCl3) δ: 1.95-2.05 (2H, m,αCH2), 2.4-2.5 (2H, m, βCH2), 3.6-3.75 (2H, m, γCH2). Decomposition in water was about 50% in 3 h at room temperature (TLC monitored). […]
# The procedure for the synthesis of N′N′-dichloro-leucine was identical to that for the dichloroGABA. The product is a pale-yellow oil. When stored in dichloromethane, at −10° C.; the compound readily decomposed with an approximate half-life of 1 h.
# From the above Examples it is apparent that dichlorination of ω-amino acids yields products which vary considerably in their stability. […] The most important precaution required for stable storage is the removal of all traces of water. […] A yield of between 30-60% was obtained, which can be improved by more efficiently exploiting the fact that primary amines are far less soluble than their chlorinated products in non-polar solvents. Those of ordinary skill in the art will recognize that the methods for isolation of the chlorinated amino acids described here can be extended to other α-carboxyl amino acids, as well as peptides and proteins.
# mice = conditions: for behaviour following injection: mice (20 g), 200 mg/Kg
# Experimental: Two other mice (20 g) received dichlorotaurine (0.1 mL=100 mg/Kg) s.c. at 60 min intervals for three hours.
# [2] = Solubility in nonpolar solvents; type: physicochemical; conditions: compared with taurine homologue
# Experimental: as §1
# [3] = system: rat brain amino acid profile; assay: Effect on rat brain amino acid profile; type: in vivo, Sprague-Dawley rats; conditions: for % change GABA / % change GLUTAMATE / % change RATIO GLU/TAU / % change RATIO GLY/GLU / % change TAURINE: dichlorotaurine vs taurine (control); for GABA tissue content / GLUTAMATE tissue content / TAURINE tissue content: 10-30 min prior to sacrifice; for GABA tissue content / GLUTAMATE tissue content / TAURINE tissue content / RATIO GLU/TAU / RATIO GLY/GLU: average of three rats
# Experimental: Three Sprague-Dawley rats were each injected with taurine (200 mg/kg) (control), and another three Sprague-Dawley rats were each administered dichlorotaurine (200 mg/kg): one at 10 min (i.p.), one at 20 min (i.p.) and one at 30 min (i.v.) prior to sacrifice. The animals were anesthetized with ether and then sacrificied by cardiac perfusion with phosphate buffered saline for 5 min, before the brains were removed at room temp.
# Brain regions were dissected by hand on a glass cold plate (4-6° C.). The samples were homogenized in 9× weight by volume of water, then perchloric acid was added to a final concentration of 0.6 M to precipitate proteins. Samples (20 μL) were neutralized with 15 μL 2M KHCO3. The extracts were centrifuged and supernatants were diluted with water 1:100. Amino acid analysis was performed by derivatization with o-phthaldialdehyde followed by liquid chromatography (Varian LC 5000 and Schoeffel FS 970 fluorometer). […] Identification and quantification by peak height was calibrated against a standard amino acid solution.
# Data are shown in Table1, below, where each taurine (control) value and dichlorotaurine value is the average of the three respective rats. The amino acid values represent endogenous neural tissue content and not extracellular (release) concentrations. The most pronounced effects of the dichlorotaurine are on the cortex-hippocampus. The data are interpreted as directed towards reduced (↓) excitability. Moreover, the data provide evidence that administration of dichlorotaurine attenuates the pathological consequences of excessive glutamate release, which is known to occur under clinical conditions such as, for example, epilepsy, intractable pain disorders, Huntington's Disease, Parkinson's Disease, and abnormalities associated with CNS trauma (e.g., stroke, spinal cord injury, impact trauma).
# [4] = mice, 100 mg/Kg s.c. at 60 min intervals for three hours
# [5] = frontal cortex, rats, 200 mg/kg
smiles,measurement,setting,value
"O=C(O)CCCN(Cl)Cl [N,N-dichloro-GABA, N,N-dichloro-γ-aminobutyric Acid]",relative stability when in contact with water,[1],the least stable
same,Decomposition in water,"[1]; 3 h at room temperature, TLC monitored",about 50%
"O=C(O)CCN(Cl)Cl [N,N-dichloro-β-alanine, N′N′-dichloro-β-alanine]",relative stability in water or 95% ethanol,[1],"More stable than N,N-dichloro-GABA"
"CC(C)C[C@@H](C(=O)O)N(Cl)Cl [N′N′-dichloro-leucine, N,N-dichloro-L-leucine, reference compound]",relative stability when in contact with water,[1]; in contact with water,the least stable
same,half-life,"[1]; stored in dichloromethane at −10° C., read-out: half-life of decomposition (converted)",~1 h
"O=S(=O)(O)CCCN(Cl)Cl [dichlorohomotaurine, N,N-dichlorohomotaurine]",behaviour following injection,mice,almost indistinguishable from that observed with the taurine homologue
same,hygroscopicity,[1],Fairly hygroscopic
same,stability in a humid atmosphere,"[1]; humid atmosphere, compared with taurine homologue",more unstable than its taurine homologue
same,half-life,"[1]; in water, read-out: t1/2 of decomposition to homotaurine (converted)",24 h
same,solubility in nonpolar solvents,[2],more soluble in nonpolar solvents
same,melting point,,197 °C
"O=S(=O)(O)CCN(Cl)Cl [dichlorotaurine, N′N′-dichlorotaurine]","onset of severe ataxia, laboured breathing and grooming behaviour towards the site of injection","mice; male mice (20 g), 200 mg/Kg i.p.",≤ 5 min
same,behaviour following injection,mice,"very quiet, showed strongly reduced responsiveness to environmental stimuli, and reduced mobility"
same,Onset of sedation following the first injection,mice; [4],5 min
same,effect of the two subsequent injections on behaviour,mice; [4],did not aggravate nor modify the tranquil behaviour
same,time after last injection to start of return to normal behaviour,mice; [4],Two to three hours
same,Observation for the next 24 h,"mice; mouse, in vivo, sc, 100 mg/kg",did not reveal any abnormalities
same,relative stability when in contact with water,[1],the most
same,stability when dry,[1],reasonably stable for up to a month
same,storage stability,[1],stable for at least one month without appreciable decomposition
same,decomposition in 95% ethanol,"[1]; 95% ethanol, over 48 h",little or no decomposition
same,stable in water,"[1]; water, ambient temperature, TLC and NMR monitoring",at least 3 h
same,interpretation,[3]; GABA changes,↓ excitability
same,interpretation,[3]; GLUTAMATE changes,↓ excitability
same,interpretation,[3]; RATIO GLU/TAU changes,↓ excitability
same,interpretation,[3]; RATIO GLY/GLU changes,↓ excitability
same,interpretation,[3]; TAURINE changes,↓ excitability
same,% change GABA,[3]; brain stem,— (±15% considered non-significant: no change)
same,% change GLUTAMATE,[3]; brain stem,— (±15% considered non-significant: no change)
same,% change RATIO GLU/TAU,[3]; brain stem,−33%
same,% change RATIO GLY/GLU,[3]; brain stem,+19%
same,% change TAURINE,[3]; brain stem,—* (±15% considered non-significant: no change)
same,GABA tissue content,"[3]; brain stem, rats, 200 mg/kg",2.32 nmoles/mg wet weight
same,GLUTAMATE tissue content,"[3]; brain stem, rats, 200 mg/kg",7.19 nmoles/mg wet weight
same,TAURINE tissue content,"[3]; brain stem, rats, 200 mg/kg",2.63 nmoles/mg wet weight
same,RATIO GLU/TAU,"[3]; brain stem, rats, 200 mg/kg",2.50
same,RATIO GLY/GLU,"[3]; brain stem, rats, 200 mg/kg",1.55
same,% change GABA,[3]; cerebellum,— (±15% considered non-significant: no change)
same,% change GLUTAMATE,[3]; cerebellum,— (±15% considered non-significant: no change)
same,% change RATIO GLU/TAU,[3]; cerebellum,— (±15% considered non-significant: no change)
same,% change RATIO GLY/GLU,[3]; cerebellum,— (±15% considered non-significant: no change)
same,% change TAURINE,[3]; cerebellum,— (±15% considered non-significant: no change)
same,GABA tissue content,"[3]; cerebellum, rats, 200 mg/kg",1.97 nmoles/mg wet weight
same,GLUTAMATE tissue content,"[3]; cerebellum, rats, 200 mg/kg",10.29 nmoles/mg wet weight
same,TAURINE tissue content,"[3]; cerebellum, rats, 200 mg/kg",5.36 nmoles/mg wet weight
same,RATIO GLU/TAU,"[3]; cerebellum, rats, 200 mg/kg",2.01
same,RATIO GLY/GLU,"[3]; cerebellum, rats, 200 mg/kg",0.46
same,% change GABA,[3]; frontal cortex,+29%
same,% change GLUTAMATE,[3]; frontal cortex,−20%
same,% change RATIO GLU/TAU,[3]; frontal cortex,−33%
same,% change RATIO GLY/GLU,[3]; frontal cortex,+42%
same,% change TAURINE,[3]; frontal cortex,+30%
same,GABA tissue content,[3]; [5],2.93 nmoles/mg wet weight
same,GLUTAMATE tissue content,[3]; [5],11.90 nmoles/mg wet weight
same,TAURINE tissue content,[3]; [5],10.00 nmoles/mg wet weight
same,RATIO GLU/TAU,[3]; [5],1.32
same,RATIO GLY/GLU,[3]; [5],0.40
same,% change GABA,[3]; hippocampus,+32%
same,% change GLUTAMATE,[3]; hippocampus,— (±15% considered non-significant: no change)
same,% change RATIO GLU/TAU,[3]; hippocampus,−24%
same,% change RATIO GLY/GLU,[3]; hippocampus,+20%
same,% change TAURINE,[3]; hippocampus,+52%
same,GABA tissue content,"[3]; hippocampus, rats, 200 mg/kg",3.73 nmoles/mg wet weight
same,GLUTAMATE tissue content,"[3]; hippocampus, rats, 200 mg/kg",15.76 nmoles/mg wet weight
same,TAURINE tissue content,"[3]; hippocampus, rats, 200 mg/kg",11.22 nmoles/mg wet weight
same,RATIO GLU/TAU,"[3]; hippocampus, rats, 200 mg/kg",1.45
same,RATIO GLY/GLU,"[3]; hippocampus, rats, 200 mg/kg",0.43
same,brain region of the most pronounced effects,"[3]; rats, 200 mg/kg",cortex-hippocampus
"NCCS(=O)(=O)O [taurine, reference compound]",behaviour following injection,mice,normal behaviour
same,GABA tissue content,"[3]; brain stem, rats, 200 mg/kg",2.25 nmoles/mg wet weight
same,GLUTAMATE tissue content,"[3]; brain stem, rats, 200 mg/kg",8.20 nmoles/mg wet weight
same,TAURINE tissue content,"[3]; brain stem, rats, 200 mg/kg",2.29 nmoles/mg wet weight
same,RATIO GLU/TAU,"[3]; brain stem, rats, 200 mg/kg",3.73
same,RATIO GLY/GLU,"[3]; brain stem, rats, 200 mg/kg",1.30
same,GABA tissue content,"[3]; cerebellum, rats, 200 mg/kg",2.25 nmoles/mg wet weight
same,GLUTAMATE tissue content,"[3]; cerebellum, rats, 200 mg/kg",11.32 nmoles/mg wet weight
same,TAURINE tissue content,"[3]; cerebellum, rats, 200 mg/kg",5.38 nmoles/mg wet weight
same,RATIO GLU/TAU,"[3]; cerebellum, rats, 200 mg/kg",2.15
same,RATIO GLY/GLU,"[3]; cerebellum, rats, 200 mg/kg",0.48
same,GABA tissue content,[3]; [5],2.28 nmoles/mg wet weight
same,GLUTAMATE tissue content,[3]; [5],15.04 nmoles/mg wet weight
same,TAURINE tissue content,[3]; [5],7.67 nmoles/mg wet weight
same,RATIO GLU/TAU,[3]; [5],1.98
same,RATIO GLY/GLU,[3]; [5],0.28
same,GABA tissue content,"[3]; hippocampus, rats, 200 mg/kg",2.83 nmoles/mg wet weight
same,GLUTAMATE tissue content,"[3]; hippocampus, rats, 200 mg/kg",13.82 nmoles/mg wet weight
same,TAURINE tissue content,"[3]; hippocampus, rats, 200 mg/kg",7.38 nmoles/mg wet weight
same,RATIO GLU/TAU,"[3]; hippocampus, rats, 200 mg/kg",1.91
same,RATIO GLY/GLU,"[3]; hippocampus, rats, 200 mg/kg",0.36
